From patent publication EP4748837A1, “AROMATIC AMIDE DERIVATIVE, AND PREPARATION METHOD THEREFOR AND USE THEREOF” (Zhejiang Hisun Pharmaceutical Co., Ltd., priority 2023, dated 2025)
Where two headings read alike, the source gives them in different places.

Columns and labels:
OVCAR-3 cells = assay: Inhibition of OVCAR-3 cell proliferation (CellTiter-Glo cell viability); format: cell-based; conditions: Homo sapiens
Protocol: (§1) Influences of the compounds of the present invention on OVCAR-3 cell proliferation were determined by the following method. OVCAR-3 cells (containing TP53 R248Q mutation) were purchased from the Cell Bank of Shanghai Institute of Biochemistry and Cell Biology, Chinese Academy of Sciences, and cultured in an RPMI 1640 culture medium containing 10% fetal bovine serum, 100 U penicillin and 100 µg/mL streptomycin. A cell viability was determined by a CellTiter-Glo® Luminescent Cell Viability Assay kit (Promega, article number G7573).
(§2) An experimental method was operated according to steps in the instruction of the kit, which was briefly described as follows: a test compound was dissolved in DMSO first to prepare a 10 mM stock solution, then the stock solution was diluted with the culture medium to prepare a test sample, and a final concentration of the compound was in a range of 1000 nM-0.015 nM. Cells in a logarithmic growth phase were inoculated into a 96-well cell culture plate at a density of 1000 cells per well, cultured in a 5% CO2 incubator at 37°C overnight, and then the test compound was added to continuously culture for 72 hours. After the culture was ended, 50 uL of CellTiter-Glo detection solution was added to each well , shaken for 5 minutes, and then allowed to stand for 10 minutes, and subsequently, a luminance value of each well of the sample was read by a microplate reader in a Luminescence mode. By comparing with the numerical value of a control group (0.3% DMSO), a percentage inhibition rate of the compound at each concentration point was calculated, and then nonlinear regression analysis was carried out based on concentration logarithm-inhibition rate of the compound in GraphPad Prism 5 software, so as to obtain an IC50 value of the compound for inhibiting the cell proliferation, which was as shown in Table 1. Table 1 IC50 data of the compounds of the present invention for inhibiting OVCAR-3 cell proliferation

recombinant human KIF18A = biological target: T1, recombinant human KIF18A (Homo sapiens, UniProt Q8NI77); assay: Inhibition of KIF18A enzyme activity (ADP-Glo assay); format: biochemical; conditions: recombinant human KIF18A 100 nM, ATP 60 µM, tubulin, paclitaxel
T1 construct: purchased GenScript
Protocol: Inhibition degrees of the compounds of the present invention on recombinant human KIF18A enzyme activity in vitro were determined by the following method. An ADP-Glo™ Kinase Assay kit (article number V9102) from Promega Company was used in this method. Detailed experimental operation referred to the instruction of the kit.
An experimental process was briefly described as follows: a test compound was dissolved in DMSO first to prepare a stock solution, then the stock solution was gradiently diluted with a reaction buffer A ([…], 0.01% Pluronic F-68), and a final concentration of the test compound in the reaction system was in a range of 10000 nM-0.15 nM; and a KIF18A protein and ATP working solution was prepared by using a reaction buffer B (15 mM Tris, pH 7.5, 10 mM MgCl2, 0.01% Pluronic F-68, 37.5 µg/ml tubulin, 1.25 µM paclitaxel). The reaction was carried out in a 384-well microplate. The test compound and the recombinant human KIF18A protein (final concentration of 100 nM, entrusted to GenScript for expression) were added into the wells and incubated at room temperature for 20 minutes, and subsequently, an ATP solution (component V915A from the ADP-Glo™ Kinase Assay kit, final concentration of 60 µM) was added to the reaction solution and the system was incubated at room temperature for 20 minutes. Subsequently, 5 µL of ADP-Glo Reagent was added to the reaction systemand the system was incubated at room temperature for 50 minutes. Then, 10 µL of Kinase Detection Reagent was added to the reaction system and the system was incubated at room temperature for 30 minutes. After the incubation was ended, a chemiluminiscence intensity value of each well was determined by a microplate reader in a Luminescence mode.

HT-29 cells = assay: Inhibition of HT-29 cell proliferation (CellTiter-Glo cell viability); format: cell-based; conditions: Homo sapiens
Protocol: as §1, with “HT-29” for “OVCAR-3”, “R273H” for “R248Q”, “a McCOY's 5A” for “an RPMI 1640”
as §2, with “for 120” for “for 72”, “each well,” for “each well ,”, “Table 2.” for “Table 1.”, “Table 2” for “Table 1”, “inhibiting HT-29” for “inhibiting OVCAR-3”

[1] = OVCAR-3 cells (TP53 R248Q mutation), 72 hours culture with compound, read-out: IC50
[2] = HT-29 cells (TP53 R273H mutation), 120 hours culture with compound, read-out: IC50

T1 sequence (Q8NI77 whole entry): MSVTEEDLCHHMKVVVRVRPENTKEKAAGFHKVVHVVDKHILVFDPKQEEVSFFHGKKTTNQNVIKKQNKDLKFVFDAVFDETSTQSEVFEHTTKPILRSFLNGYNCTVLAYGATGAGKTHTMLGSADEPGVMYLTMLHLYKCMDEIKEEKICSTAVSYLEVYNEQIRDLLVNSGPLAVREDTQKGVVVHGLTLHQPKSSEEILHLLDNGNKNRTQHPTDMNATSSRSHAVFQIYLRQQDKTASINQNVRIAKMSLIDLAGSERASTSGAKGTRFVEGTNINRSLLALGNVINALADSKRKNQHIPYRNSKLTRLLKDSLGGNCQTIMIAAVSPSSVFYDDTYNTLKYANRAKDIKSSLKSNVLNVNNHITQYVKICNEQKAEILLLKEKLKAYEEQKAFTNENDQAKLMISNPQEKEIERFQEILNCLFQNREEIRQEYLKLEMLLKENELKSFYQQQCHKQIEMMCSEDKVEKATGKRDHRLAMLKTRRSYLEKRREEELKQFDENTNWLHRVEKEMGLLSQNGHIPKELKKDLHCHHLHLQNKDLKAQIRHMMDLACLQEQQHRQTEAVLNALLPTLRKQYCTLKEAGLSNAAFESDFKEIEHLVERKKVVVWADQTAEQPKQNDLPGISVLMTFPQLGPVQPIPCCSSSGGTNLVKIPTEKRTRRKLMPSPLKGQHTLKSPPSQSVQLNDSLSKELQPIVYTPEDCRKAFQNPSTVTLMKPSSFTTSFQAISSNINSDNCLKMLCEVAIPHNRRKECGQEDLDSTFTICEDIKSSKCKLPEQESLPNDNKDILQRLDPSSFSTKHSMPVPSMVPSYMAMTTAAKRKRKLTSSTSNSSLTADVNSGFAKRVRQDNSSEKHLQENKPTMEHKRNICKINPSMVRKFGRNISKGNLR
T1 sequence (P68363 whole entry partner): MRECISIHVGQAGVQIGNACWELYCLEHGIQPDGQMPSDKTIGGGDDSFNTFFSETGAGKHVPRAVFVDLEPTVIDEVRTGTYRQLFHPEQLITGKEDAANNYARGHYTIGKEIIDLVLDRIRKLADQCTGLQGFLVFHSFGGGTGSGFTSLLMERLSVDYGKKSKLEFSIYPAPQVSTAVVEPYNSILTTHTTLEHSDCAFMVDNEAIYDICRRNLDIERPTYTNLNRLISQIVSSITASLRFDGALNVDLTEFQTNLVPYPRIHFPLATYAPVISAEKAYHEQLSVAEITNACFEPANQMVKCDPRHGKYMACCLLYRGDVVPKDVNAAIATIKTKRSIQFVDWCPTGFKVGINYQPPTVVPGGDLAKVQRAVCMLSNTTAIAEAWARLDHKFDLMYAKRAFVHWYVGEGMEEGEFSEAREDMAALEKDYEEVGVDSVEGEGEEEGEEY
T1 sequence (Q9BVA1 whole entry partner): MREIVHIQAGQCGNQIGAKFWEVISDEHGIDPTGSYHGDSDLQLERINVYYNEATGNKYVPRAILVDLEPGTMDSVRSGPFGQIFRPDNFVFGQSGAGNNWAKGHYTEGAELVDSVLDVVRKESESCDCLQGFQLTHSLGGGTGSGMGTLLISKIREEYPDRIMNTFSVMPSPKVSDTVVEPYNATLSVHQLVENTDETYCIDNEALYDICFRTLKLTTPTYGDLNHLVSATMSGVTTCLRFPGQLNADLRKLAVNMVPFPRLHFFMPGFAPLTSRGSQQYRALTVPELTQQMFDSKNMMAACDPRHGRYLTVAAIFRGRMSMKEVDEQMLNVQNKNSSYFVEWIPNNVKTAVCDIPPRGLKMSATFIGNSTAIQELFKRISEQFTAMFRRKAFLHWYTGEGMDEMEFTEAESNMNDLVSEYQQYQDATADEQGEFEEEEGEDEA

SMILES	IC50 (OVCAR-3 cells; [1]) [nM]	IC50 (recombinant human KIF18A; read-out: IC50) [nM]	IC50 (HT-29 cells; [2]) [nM]	IC50 (OVCAR-3 cells; OVCAR-3, 72 h) [nM]	IC50 (recombinant human KIF18A) [nM]	IC50 (HT-29 cells; HT-29, 120 h) [nM]
O=C(Nc1ccc(-c2ncccn2)c(N2CCC(F)(F)CC2)c1)c1ccc(NS(=O)(=O)C2CC2)cc1N1CCC2(CC1)CC2 [Example 17, 4-(cyclopropanesulfonamido)-N-(3-(4,4-difluoropiperidin-1-yl)-4-(pyrimidin-2-yl)phenyl)-2-(6-azaspiro[2.5]octan-6-yl)b enzamide]	3.2	121	3.3			
CCS(=O)(=O)Nc1ccc(C(=O)Nc2ccc(-n3ccnc3)c(N3CCC(F)(F)CC3)c2)c(N2CCC3(CC2)CC3)c1 [Example 20, N-(3-(4,4-difluoropiperidin-1-yl)-4-(1H-imidazol-1-yl)pheny 1)-4-(ethylsulfonamido)-2-(6-azaspiro[2.5]octan-6-yl)benzamide]	8.5	50.8	6			
CCS(=O)(=O)Nc1ccc(C(=O)Nc2ccc(-c3ncc[nH]3)c(N3CCC(F)(F)CC3)c2)c(N2CCC3(CC2)CC3)c1 [Example 25, N-(3-(4,4-difluoropiperidin-1-yl)-4-(1H-imidazol-2-yl)pheny 1)-4-(ethylsulfonamido)-2-(6-azaspiro[2.5]octan-6-yl)benzamide]				3.5	33.9	2.6
CCS(=O)(=O)Nc1ccc(C(=O)Nc2ccc(-n3cncn3)c(N3CCC(F)(F)CC3)c2)c(N2CCC3(CC2)CC3)c1 [Example 28, N-(3-(4,4-difluoropiperidin-1-yl)-4-(1H-1,2,4-triazol-1-yl)phenyl)-4-(ethylsulfonamido)-2-(6-azaspiro[2.5]octan-6-yl)benz amide]	12.4	59.1	8.4			
CCS(=O)(=O)Nc1ccc(C(=O)Nc2ccc(-n3cnnn3)c(N3CCC(F)(F)CC3)c2)c(N2CCC3(CC2)CC3)c1 [Example 29, N-(3-(4,4-difluoropiperidin-1-yl)-4-(1H-tetrazol-1-yl)phenyl)-4-(ethylsulfonamido)-2-(6-azaspiro[2.5]octan-6-yl)benzamide]	15.9	79.5	18.4			
CCS(=O)(=O)Nc1ccc(C(=O)Nc2ccc(-n3ncnn3)c(N3CCC(F)(F)CC3)c2)c(N2CCC3(CC2)CC3)c1 [Example 30, N-(3-(4,4-difluoropiperidin-1-yl)-4-(2H-tetrazol-2-yl)phenyl)-4-(ethylsulfonamido)-2-(6-azaspiro[2.5]octan-6-yl)benzamide]	13.3	79	7.9			
CCS(=O)(=O)Nc1ccc(C(=O)Nc2ccc(-n3ccnn3)c(C3CCC(F)(F)CC3)c2)c(N2CCC3(CC2)CC3)c1 [Example 31, N-(3-(4,4-difluorocyclohexyl)-4-(1H-1,2,3-triazol-1-yl)pheny 1)-4-(ethylsulfonamido)-2-(6-azaspiro[2.5]octan-6-yl)benzamide]	15.9	134	8.3			
O=C(Nc1ccc(-c2nnco2)c(N2CCC(F)(F)CC2)c1)c1ccc(NS(=O)(=O)C2CC2)cc1N1CCC2(CC1)CC2 [Example 41, 4-(cyclopropanesulfonamido)-N-(3-(4,4-difluoropiperidin-1-yl)-4-(1,3,4-oxadiazol-2-yl)phenyl)-2-(6-azaspiro[2.5]octan-6-yl)benzamide]	6.2	155	1.8			
CCS(=O)(=O)Nc1ccc(C(=O)Nc2ccc(-c3ncn(C)n3)c(OC3CC(F)(F)C3)c2)c(N2CCC3(CC2)CC3)c1 [Example 45, N-(3-(3,3-difluorocyclobutoxy)-4-(1-methyl-1H-1,2,4-triazol-3-yl)phenyl)-4-(ethylsulfonamido)-2-(6-azaspiro[2.5]octan-6-yl)benzamide]	2.5	103	6.2			

Further lines, with some results ahead:

IC50 (OVCAR-3 cells; [1]) [nM]	IC50 (recombinant human KIF18A; read-out: IC50) [nM]	IC50 (HT-29 cells; [2]) [nM]	SMILES	IC50 (OVCAR-3 cells; OVCAR-3, 72 h) [nM]	IC50 (recombinant human KIF18A) [nM]	IC50 (HT-29 cells; HT-29, 120 h) [nM]
6.2	147	4.6	O=C(Nc1ccc(-c2ccnnc2)c(N2CCC(F)(F)CC2)c1)c1ccc(NS(=O)(=O)C2CC2)cc1N1CCC2(CC1)CC2 [Example 16, 4-(cyclopropanesulfonamido)-N-(3-(4,4-difluoropiperidin-1-yl)-4-(pyridazin-4-yl)phenyl)-2-(6-azaspiro[2.5]octan-6-yl)b enzamide]			
6.5	149	0.64	CCS(=O)(=O)Nc1ccc(C(=O)Nc2ccc(-c3ncccn3)c(N3CC(F)(F)C3)c2)c(N2CCC3(CC2)CC3)c1 [Example 18, N-(3-(3,3-difluoroazetidin-1-y 1)-4-(pyrimidin-2-yl)phenyl)-4-(ethylsulfonamido)-2-(6-azaspiro[2.5]octan-6-yl)benzamide]			
6.3	98.6	0.44	CCS(=O)(=O)Nc1ccc(C(=O)Nc2ccc(-c3ccnnc3)c(N3CC(F)(F)C3)c2)c(N2CCC3(CC2)CC3)c1 [Example 19, N-(3-(3,3-difluoroazetidin-1-y 1)-4-(pyridazin-4-yl)phenyl)-4-(ethylsulfonamido)-2-(6-azaspiro[2.5]octan-6-yl)benzamide]			
3.6	39.8	3.8	CCS(=O)(=O)Nc1ccc(C(=O)Nc2ccc(-c3nnc[nH]3)c(N3CCC(F)(F)CC3)c2)c(N2CCC3(CC2)CC3)c1 [Example 37, N-(3-(4,4-difluoropiperidin-1-yl)-4-(4H-1,2,4-triazol-3-yl)phenyl)-4-(ethylsulfonamido)-2-(6-azaspiro[2.5]octan-6-yl)benz amide]			
3.8	122	0.26	CCS(=O)(=O)Nc1ccc(C(=O)Nc2ccc(-c3ncn(C)n3)c(N3CCC(F)(F)CC3)c2)c(N2CCC3(CC2)CC3)c1 [Example 39, N-(3-(4,4-difluoropiperidin-1-yl)-4-(1-methyl-1H-1,2,4-triazol-3-yl)phenyl)-4-(ethylsulfon amido)-2-(6-azaspiro[2.5]octan-6-yl)benzamide]			
3.7	148	0.15	CCS(=O)(=O)Nc1ccc(C(=O)Nc2ccc(-c3ncn(C)n3)c(N3CC(F)(F)C3)c2)c(N2CCC3(CC2)CC3)c1 [Example 46, N-(3-(3,3-difluoroazetidin-1-y 1)-4-(1-methyl-1H-l,2,4-triazo 1-3-yl)phenyl)-4-(ethylsulfonamido)-2-(6-azaspiro[2.5]octan-6-yl)benzamide]			
